US10045981B2, “Selective kinase inhibitors” (JAKPHARM, LLC, priority 2015, dated 2018)
In brackets after ≈: the same amount, converted by molar mass. Where two headings read alike, the source gives them in different places.

Experiments:
STAT5 = STAT5 inhibition IC50; format: cell-based
JAK1 = JAK1 (Homo sapiens, UniProt P23458); assay: JAK1 IC50; format: biochemical
[1] = Solubility in aqueous buffer; format: physicochemical; settings: aqueous buffer, pH 7.4, aqueous buffer, aqueous buffer
CK1g2 = CK1g2 (Homo sapiens, UniProt P78368); assay: Exemplary Kinase Panel Analysis; format: biochemical; settings: 10 concentrations, 3-fold serial dilutions starting at 5 μM, duplicate
CK1g3 = CK1g3 (Homo sapiens, UniProt Q9Y6M4); assay: Exemplary Kinase Panel Analysis; format: biochemical; settings: 10 concentrations, 3-fold serial dilutions starting at 5 μM, duplicate
EGFR (d752-759) = EGFR (d752-759) (Homo sapiens, UniProt P00533, DEL752-759); assay: Exemplary Kinase Panel Analysis; format: biochemical; settings: 10 concentrations, 3-fold serial dilutions starting at 5 μM, duplicate
EGFR (L858R, T790M) = EGFR (L858R, T790M) (Homo sapiens, UniProt P00533, L858R/T790M); assay: Exemplary Kinase Panel Analysis; format: biochemical; settings: 10 concentrations, 3-fold serial dilutions starting at 5 μM, duplicate
EGFR (T790M) = EGFR (T790M) (Homo sapiens, UniProt P00533, T790M); assay: Exemplary Kinase Panel Analysis; format: biochemical; settings: 10 concentrations, 3-fold serial dilutions starting at 5 μM, duplicate
JAK3 = target: T1, JAK3 (Homo sapiens, UniProt P52333); assay: Exemplary Kinase Panel Analysis; format: biochemical; settings: 10 concentrations, 3-fold serial dilutions starting at 5 μM, duplicate
T1 sequence (P52333 1-1124): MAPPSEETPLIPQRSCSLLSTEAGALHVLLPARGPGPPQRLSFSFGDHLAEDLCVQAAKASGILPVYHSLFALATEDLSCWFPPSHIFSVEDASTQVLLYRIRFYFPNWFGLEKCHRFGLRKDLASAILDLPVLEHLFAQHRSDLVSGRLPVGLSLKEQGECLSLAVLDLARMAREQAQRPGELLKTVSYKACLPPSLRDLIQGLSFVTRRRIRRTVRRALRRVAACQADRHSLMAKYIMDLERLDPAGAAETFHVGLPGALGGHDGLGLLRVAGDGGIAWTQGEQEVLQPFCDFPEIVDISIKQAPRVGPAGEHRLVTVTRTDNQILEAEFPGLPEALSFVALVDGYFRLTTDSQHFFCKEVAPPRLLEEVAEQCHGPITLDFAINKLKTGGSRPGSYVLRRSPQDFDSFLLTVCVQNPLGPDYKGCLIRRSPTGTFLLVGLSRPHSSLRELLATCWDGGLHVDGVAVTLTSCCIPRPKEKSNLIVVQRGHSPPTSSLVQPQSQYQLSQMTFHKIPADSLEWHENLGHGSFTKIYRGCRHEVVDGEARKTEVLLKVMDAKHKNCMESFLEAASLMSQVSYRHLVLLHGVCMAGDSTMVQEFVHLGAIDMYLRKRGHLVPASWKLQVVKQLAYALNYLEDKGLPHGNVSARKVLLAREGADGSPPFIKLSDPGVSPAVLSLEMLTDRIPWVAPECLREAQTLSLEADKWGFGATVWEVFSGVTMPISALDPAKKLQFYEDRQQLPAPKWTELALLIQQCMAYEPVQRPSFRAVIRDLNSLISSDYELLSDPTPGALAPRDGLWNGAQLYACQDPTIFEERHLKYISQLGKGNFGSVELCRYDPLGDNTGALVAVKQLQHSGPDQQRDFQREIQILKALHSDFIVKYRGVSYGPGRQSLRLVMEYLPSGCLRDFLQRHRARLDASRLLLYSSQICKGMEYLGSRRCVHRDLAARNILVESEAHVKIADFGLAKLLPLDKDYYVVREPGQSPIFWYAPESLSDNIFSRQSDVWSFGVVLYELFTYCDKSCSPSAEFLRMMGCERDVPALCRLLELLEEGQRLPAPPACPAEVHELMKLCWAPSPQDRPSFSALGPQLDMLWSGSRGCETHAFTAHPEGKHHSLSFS

TXK = target: T2, TXK (Homo sapiens, UniProt P42681); assay: Exemplary Kinase Panel Analysis; format: biochemical; settings: 10 concentrations, 3-fold serial dilutions starting at 5 μM, duplicate
T2 sequence (P42681 1-527): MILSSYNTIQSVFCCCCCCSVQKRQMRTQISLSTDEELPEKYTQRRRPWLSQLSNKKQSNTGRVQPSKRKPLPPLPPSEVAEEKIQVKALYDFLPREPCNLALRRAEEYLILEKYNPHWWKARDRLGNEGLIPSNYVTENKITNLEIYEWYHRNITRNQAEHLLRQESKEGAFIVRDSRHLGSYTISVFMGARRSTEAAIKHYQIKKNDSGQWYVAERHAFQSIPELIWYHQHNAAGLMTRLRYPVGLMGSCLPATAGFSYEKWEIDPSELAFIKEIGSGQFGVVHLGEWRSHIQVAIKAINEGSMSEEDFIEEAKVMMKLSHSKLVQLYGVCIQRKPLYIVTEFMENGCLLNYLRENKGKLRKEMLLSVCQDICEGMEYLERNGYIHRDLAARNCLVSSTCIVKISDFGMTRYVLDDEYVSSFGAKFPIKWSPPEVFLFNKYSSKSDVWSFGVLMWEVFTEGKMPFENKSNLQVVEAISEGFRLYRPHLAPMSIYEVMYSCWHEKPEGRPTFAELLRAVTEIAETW

[2] = Brain penetration classification
[3] = Rat Liver Microsomes stability; format: in vitro ADME; settings: read-out: Rat Liver Microsomes t½
[4] = Mouse Liver Microsomes stability; format: in vitro ADME; settings: read-out: Mouse Liver Microsomes t½
CYP2D6 = CYP2D6 (Homo sapiens, UniProt P10635); assay: CYP2D6 inhibition LCMS; format: in vitro ADME
CYP3A4 = CYP3A4 (Homo sapiens, UniProt P08684); assay: CYP3A4 inhibition midazolam LCMS; format: in vitro ADME
[5] = Cytotoxicity Screening L929 Fibroblasts; format: cell-based; settings: mouse, read-out: 50% Maximal Effect Concentration (AC50)
Source text: (§1) The cytotoxicity screening panel included cell count, nuclear size, DNA structure, cell membrane permeability, mitochondrial mass, mitochondrial membrane potential, and cytochrome C release.

L929 Fibroblasts = assay: Cytotoxicity Screening L929 Fibroblasts; format: cell-based
Source text: as §1

[6] = Original analysis, read-out: STAT5 IC50 (uM) Original
[7] = Table 3, first session (before /), read-out: STATS inhibition IC50
[8] = Table 3, second session (after /), read-out: STATS inhibition IC50
[9] = re-test, read-out: STAT5 IC50 (uM) re-test
[10] = Original analysis, read-out: JAK1 IC50 (uM) Original
[11] = re-test, read-out: JAK1 IC50 (uM) re-test
[12] = pH 7.4, Original, read-out: Solubility pH 7.4 (uM) Original
[13] = pH 7.4, Re-test, read-out: Solubility pH 7.4 (uM) Re-test
[14] = pH 7.4, Table 3, first session (before /), read-out: Solubility, pH 7.4
[15] = pH 7.4, Table 3, second session (after /), read-out: Solubility, pH 7.4

Sequence of CYP2D6 (P10635 whole entry): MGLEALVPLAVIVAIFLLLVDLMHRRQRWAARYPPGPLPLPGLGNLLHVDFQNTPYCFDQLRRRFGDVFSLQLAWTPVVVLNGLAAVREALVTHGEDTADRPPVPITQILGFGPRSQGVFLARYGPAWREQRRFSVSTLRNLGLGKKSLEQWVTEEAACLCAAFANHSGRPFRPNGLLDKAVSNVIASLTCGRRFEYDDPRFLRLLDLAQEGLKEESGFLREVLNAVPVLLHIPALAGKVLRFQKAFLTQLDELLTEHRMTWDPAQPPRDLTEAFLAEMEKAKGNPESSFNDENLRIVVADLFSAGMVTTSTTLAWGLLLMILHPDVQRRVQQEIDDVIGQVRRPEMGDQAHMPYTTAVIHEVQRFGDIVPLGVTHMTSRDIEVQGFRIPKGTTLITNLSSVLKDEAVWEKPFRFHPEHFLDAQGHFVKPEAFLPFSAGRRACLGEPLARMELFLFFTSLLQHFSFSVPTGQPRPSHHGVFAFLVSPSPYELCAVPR
Sequence of JAK1 (P23458 whole entry, species assumed): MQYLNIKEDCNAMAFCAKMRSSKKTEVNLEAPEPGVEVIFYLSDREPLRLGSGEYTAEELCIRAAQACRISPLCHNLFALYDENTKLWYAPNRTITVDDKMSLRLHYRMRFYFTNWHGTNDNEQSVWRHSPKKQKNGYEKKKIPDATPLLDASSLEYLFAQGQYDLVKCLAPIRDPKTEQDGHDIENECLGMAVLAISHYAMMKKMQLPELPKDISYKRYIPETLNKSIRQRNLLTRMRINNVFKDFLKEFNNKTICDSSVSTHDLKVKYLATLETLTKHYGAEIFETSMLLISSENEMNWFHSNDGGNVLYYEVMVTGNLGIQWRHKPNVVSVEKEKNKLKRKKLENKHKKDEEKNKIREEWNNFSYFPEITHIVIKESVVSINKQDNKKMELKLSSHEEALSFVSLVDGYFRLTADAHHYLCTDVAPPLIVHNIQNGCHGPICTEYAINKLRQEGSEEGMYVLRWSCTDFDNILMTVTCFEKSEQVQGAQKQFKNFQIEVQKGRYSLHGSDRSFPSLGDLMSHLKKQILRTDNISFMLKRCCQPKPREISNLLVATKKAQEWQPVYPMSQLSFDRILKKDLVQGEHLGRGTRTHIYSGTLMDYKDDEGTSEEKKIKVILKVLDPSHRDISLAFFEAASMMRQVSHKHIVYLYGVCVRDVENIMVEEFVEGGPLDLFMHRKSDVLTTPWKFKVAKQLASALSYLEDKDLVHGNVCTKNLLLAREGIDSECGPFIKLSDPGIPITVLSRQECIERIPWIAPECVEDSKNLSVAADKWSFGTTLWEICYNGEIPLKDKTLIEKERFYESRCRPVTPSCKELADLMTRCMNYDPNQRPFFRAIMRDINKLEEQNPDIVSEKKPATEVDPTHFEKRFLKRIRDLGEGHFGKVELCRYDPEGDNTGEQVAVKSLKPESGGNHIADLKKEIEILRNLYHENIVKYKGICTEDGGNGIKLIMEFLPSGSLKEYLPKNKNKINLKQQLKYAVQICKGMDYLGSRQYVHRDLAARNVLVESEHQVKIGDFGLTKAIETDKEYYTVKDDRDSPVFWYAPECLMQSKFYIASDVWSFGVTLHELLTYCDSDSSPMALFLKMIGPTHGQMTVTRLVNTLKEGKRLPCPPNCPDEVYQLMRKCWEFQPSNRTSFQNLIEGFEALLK
Sequence of CYP3A4 (P08684 whole entry): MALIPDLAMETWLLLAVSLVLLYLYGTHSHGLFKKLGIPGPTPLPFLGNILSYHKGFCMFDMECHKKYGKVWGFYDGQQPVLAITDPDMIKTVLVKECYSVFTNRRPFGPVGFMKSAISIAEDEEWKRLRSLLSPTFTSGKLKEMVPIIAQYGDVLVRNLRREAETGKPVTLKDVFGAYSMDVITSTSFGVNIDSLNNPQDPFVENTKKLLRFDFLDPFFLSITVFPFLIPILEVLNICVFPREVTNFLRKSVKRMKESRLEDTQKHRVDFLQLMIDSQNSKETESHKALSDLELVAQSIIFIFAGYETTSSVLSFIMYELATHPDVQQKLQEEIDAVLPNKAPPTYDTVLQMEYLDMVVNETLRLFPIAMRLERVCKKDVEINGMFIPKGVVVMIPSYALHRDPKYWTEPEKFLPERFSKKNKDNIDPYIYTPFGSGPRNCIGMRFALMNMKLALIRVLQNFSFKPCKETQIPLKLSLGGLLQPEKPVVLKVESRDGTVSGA
Sequence of CK1g3 (Q9Y6M4 whole entry): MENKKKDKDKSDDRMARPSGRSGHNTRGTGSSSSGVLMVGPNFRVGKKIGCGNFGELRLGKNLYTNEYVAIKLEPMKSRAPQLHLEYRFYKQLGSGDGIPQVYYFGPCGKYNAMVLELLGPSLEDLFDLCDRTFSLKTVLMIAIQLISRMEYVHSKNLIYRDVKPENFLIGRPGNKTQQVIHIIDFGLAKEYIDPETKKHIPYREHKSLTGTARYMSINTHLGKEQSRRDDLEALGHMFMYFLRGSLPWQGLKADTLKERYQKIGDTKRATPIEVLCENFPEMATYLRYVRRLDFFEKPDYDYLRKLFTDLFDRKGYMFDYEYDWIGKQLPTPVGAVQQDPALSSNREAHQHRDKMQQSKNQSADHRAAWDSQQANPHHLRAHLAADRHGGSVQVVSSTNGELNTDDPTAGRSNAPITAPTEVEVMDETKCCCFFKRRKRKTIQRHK
Sequence of EGFR (d752-759) (P00533 with tags, fused parts or gaps DEL752-759 limits assumed): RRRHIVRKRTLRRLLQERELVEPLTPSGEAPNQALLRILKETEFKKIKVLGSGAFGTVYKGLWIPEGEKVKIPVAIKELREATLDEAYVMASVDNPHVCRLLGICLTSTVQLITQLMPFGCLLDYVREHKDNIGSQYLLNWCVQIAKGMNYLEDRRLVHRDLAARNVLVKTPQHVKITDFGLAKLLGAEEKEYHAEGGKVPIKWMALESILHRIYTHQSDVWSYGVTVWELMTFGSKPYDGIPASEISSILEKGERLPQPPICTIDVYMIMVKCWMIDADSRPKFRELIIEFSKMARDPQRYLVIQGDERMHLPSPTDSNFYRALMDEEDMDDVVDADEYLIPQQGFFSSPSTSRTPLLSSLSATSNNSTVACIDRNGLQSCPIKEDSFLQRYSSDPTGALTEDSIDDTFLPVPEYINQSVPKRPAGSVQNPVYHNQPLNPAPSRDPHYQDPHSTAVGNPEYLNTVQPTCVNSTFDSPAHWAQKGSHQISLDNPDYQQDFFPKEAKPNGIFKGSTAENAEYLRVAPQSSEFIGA
Sequence of CK1g2 (P78368 whole entry, species assumed): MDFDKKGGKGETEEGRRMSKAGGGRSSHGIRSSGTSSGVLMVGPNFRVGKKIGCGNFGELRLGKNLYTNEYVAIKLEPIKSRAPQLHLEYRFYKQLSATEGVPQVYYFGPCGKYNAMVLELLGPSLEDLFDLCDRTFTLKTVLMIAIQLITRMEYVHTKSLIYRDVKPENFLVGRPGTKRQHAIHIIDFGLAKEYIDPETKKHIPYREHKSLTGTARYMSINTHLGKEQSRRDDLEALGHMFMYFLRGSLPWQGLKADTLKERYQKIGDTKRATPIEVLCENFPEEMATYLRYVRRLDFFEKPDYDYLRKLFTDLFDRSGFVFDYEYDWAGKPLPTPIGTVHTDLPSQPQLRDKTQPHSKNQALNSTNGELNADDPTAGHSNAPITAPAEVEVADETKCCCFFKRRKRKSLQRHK
Sequence of EGFR (L858R, T790M) (P00533 25-1210 T790M/L858R): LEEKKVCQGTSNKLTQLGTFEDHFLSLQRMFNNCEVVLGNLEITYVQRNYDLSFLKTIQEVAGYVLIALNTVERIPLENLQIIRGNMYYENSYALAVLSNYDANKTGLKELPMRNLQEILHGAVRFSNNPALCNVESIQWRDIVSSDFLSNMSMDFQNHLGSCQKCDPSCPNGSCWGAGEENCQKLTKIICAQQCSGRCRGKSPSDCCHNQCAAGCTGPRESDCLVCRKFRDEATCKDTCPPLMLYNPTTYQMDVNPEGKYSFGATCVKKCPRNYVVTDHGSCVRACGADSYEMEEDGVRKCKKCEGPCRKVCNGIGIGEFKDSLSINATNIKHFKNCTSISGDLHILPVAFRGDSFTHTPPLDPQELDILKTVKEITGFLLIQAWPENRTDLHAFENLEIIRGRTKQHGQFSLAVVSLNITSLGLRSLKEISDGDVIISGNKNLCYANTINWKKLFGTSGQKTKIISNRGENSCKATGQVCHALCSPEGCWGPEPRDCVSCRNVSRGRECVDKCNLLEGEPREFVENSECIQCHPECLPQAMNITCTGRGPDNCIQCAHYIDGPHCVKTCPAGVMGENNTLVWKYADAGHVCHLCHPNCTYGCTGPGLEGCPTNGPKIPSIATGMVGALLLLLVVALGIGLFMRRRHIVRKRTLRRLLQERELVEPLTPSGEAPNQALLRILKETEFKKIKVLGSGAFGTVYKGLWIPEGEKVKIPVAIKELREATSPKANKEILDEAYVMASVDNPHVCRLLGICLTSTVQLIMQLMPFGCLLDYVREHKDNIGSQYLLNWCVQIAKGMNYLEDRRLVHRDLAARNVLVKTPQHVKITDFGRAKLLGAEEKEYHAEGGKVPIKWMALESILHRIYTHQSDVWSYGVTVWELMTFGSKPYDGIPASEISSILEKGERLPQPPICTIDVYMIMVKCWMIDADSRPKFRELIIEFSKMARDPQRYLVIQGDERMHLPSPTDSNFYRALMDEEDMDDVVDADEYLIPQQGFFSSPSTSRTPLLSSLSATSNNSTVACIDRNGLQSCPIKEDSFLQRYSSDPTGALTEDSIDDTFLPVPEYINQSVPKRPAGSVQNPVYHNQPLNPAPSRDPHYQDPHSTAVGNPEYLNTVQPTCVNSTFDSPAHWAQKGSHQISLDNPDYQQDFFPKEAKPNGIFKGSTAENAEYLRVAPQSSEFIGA

Row | SMILES | IC50 (STAT5; [6]) [µM] | IC50 (STAT5; [7]) [µM] | IC50 (STAT5; [8]) [µM] | IC50 (STAT5; [9]) [µM] | IC50 (JAK1; [10]) [µM] | IC50 (JAK1; [11]) [µM] | solubility [1, 12] [µM] | solubility [1, 13] [µM] | solubility [1, 14] [µM] | solubility [1, 15] [µM] | IC50 (CK1g2) [µM] | IC50 (CK1g3) [µM] | IC50 (EGFR (d752-759)) [µM] | IC50 (EGFR (L858R, T790M)) [µM] | IC50 (EGFR (T790M)) [µM] | IC50 (JAK3) [µM] | IC50 (TXK) [µM] | Brain penetration classification [2] | half-life ([3]; first session (before /)) [min] | half-life ([3]; second session (after /)) [min] | further results
1 | C=CC(=O)Nc1cc(CC(=O)OC)cc(-c2cnc3ccccc3n2)c1 [Compound 2] | 0.8 | 0.8 | 2.9 | 2.9 | ≥ 100 | ≥ 100 | 9 (≈ 3.13 µg/mL) | 1 (≈ 0.347 µg/mL) | 9 (≈ 3.13 µg/mL) | 1 (≈ 0.347 µg/mL) | 0.00986 | 0.0244 | 1.03 | 0.653 | 3.31 | 0.00119 | 0.0149 | Moderate | 2 | 2.2 | half-life ([4]; first session (before /)): 3.3 min; half-life ([4]; second session (after /)): 6 min; IC50 (CYP2D6; first session (before /)): > 100 µM; IC50 (CYP2D6; second session (after /)): > 100 µM; IC50 (CYP3A4; first session (before /)): > 100 µM; IC50 (CYP3A4; second session (after /)): > 100 µM; AC50 [5]: 18 µM; Minimal Effective Concentration (MEC, uM) (L929 Fibroblasts): 2 µM
2 | C=CC(=O)Nc1cc(CN2CCN(C)C(=O)C2)cc(-c2cnc3ccccc3n2)c1 [Compound 1a] | 1.2 | 1.2 | 2.9 | 2.9 | ≥ 100 | ≥ 100 | 85 (≈ 34.1 µg/mL) | 34 (≈ 13.6 µg/mL) | 85 (≈ 34.1 µg/mL) | 34 (≈ 13.6 µg/mL) | 0.248 | 0.358 | 0.194 | 0.231 | 0.688 | 0.00157 | 0.0316 | Low | 50 | 36 | half-life ([4]; first session (before /)): 7.3 min; half-life ([4]; second session (after /)): 15 min; IC50 (CYP2D6; first session (before /)): > 100 µM; IC50 (CYP2D6; second session (after /)): > 100 µM; IC50 (CYP3A4; first session (before /)): > 100 µM; IC50 (CYP3A4; second session (after /)): > 100 µM; AC50 [5]: 20 µM; Minimal Effective Concentration (MEC, uM) (L929 Fibroblasts): 9 µM
